Measurements taken from patent US20150218172A1, “Pyrrolo[2,3-D]Pyrimidine Tropomyosin-Related Kinase Inhibitors” (PFIZER LIMITED, priority 2012, published 2015).

What follows are compounds tested against T1, TrkA (Homo sapiens, UniProt P04629) (assay: Isolated TRK enzyme assay (HTRF KinEASE-TK kit), PV3144 TrkA enzyme assay). Details: PV3144 TrkA enzyme assay, recombinant His-tagged cytoplasmic domain aa 441-796, 4 nM enzyme, 40 uM ATP; arithmetic mean where more than one reading; read-out: Trka enzyme (IC50).
T1 construct: aa 441-796; His; purchased Invitrogen PV3144
Format: biochemical
Outline: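 Recombinant His-tagged cytoplasmic domain of human TrkA, preactivated with ATP for 20 min, then 20 min with compound before biotinylated TK substrate (1 uM final) at room temperature. HTRF read at 665/620 nm; % inhibition normalised to reference-compound and DMSO controls, IC50 from sigmoid fit, mean of replicates.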

T1 sequence (P04629 441-796): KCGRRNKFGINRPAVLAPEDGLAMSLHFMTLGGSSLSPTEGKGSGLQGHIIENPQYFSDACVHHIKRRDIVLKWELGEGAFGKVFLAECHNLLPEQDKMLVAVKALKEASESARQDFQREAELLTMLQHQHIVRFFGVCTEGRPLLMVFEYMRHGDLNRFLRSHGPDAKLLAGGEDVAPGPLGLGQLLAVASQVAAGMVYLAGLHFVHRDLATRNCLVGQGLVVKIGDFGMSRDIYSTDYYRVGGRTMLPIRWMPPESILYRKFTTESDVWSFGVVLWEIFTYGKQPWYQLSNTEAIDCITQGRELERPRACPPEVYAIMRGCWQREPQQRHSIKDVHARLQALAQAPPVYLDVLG

IC50 [nM]	Compound
155	CC1(n2cc(C(=O)c3cc(NC(=O)Cc4ccc(Cl)cn4)ccn3)c3cncnc32)COC1 [Example 168, 2-(5-chloropyridin-2-yl)-N-(2-{[7-(3-methyloxetan-3-yl)-7H-pyrrolo[2,3-d]pyrimidin-5-yl]carbonyl}pyridin-4-yl)acetamide]
53.6	CC(C)n1cc(C(=O)c2cc(NC(=O)Cc3ccc(C#N)cn3)ccn2)c2cncnc21 [Example 109, 2-(5-Cyanopyridin-2-yl)-N-{2-[(7-isopropyl-7H-pyrrolo[2,3-d]pyrimidin-5-yl)carbonyl]pyridin-4-yl}acetamide]
44.5	CC(C)n1cc(C(=O)c2cc(NC(=O)Cn3cc(C4CC4)nn3)ccn2)c2cnc(N)nc21 [Example 91, N-(2-{[2-amino-7-(propan-2-yl)-7H-pyrrolo[2,3-d]pyrimidin-5-yl]carbonyl}pyridin-4-yl)-2-(4-cyclopropyl-1H-1,2,3-triazol-1-yl)acetamide]
7.29	CC(C)(CO)n1cc(C(=O)c2cc(NC(=O)Cc3ccc(Cl)cc3)ccn2)c2cnc(N)nc21 [Example 48, N-{2-[2-Amino-7-(2-hydroxy-1,1-dimethyl-ethyl)-7H-pyrrolo[2,3-d]pyrimidine-5-carbonyl}-pyridin-4-yl]-2-(4-chloro-phenyl)-acetamide]
10.2	CC(C)n1cc(C(=O)c2ccnc(NC(=O)Cc3ccc(Cl)cc3)c2)c2cnc(N)nc21 [Example 44, N-[4-(2-Amino-7-isopropyl-7H-pyrrolo[2,3-d]pyrimidine-5-carbonyl)-pyridin-2-yl]-2-(4-chloro-phenyl)-acetamide]
328	Cc1cn(CC(=O)Nc2cc(C(=O)c3cn(C(C)C)c4ncncc34)ccn2)nn1 [Example 121, 2-(4-methyl-1H-1,2,3-triazol-1-yl)-N-(4-{[7-(propan-2-yl)-7H-pyrrolo[2,3-d]pyrimidin-5-yl]carbonyl}pyridin-2-yl)acetamide]
24.5	C[C@H](CO)n1cc(C(=O)c2cc(NC(=O)Cn3ccc(C(F)(F)F)n3)ccn2)c2cncnc21 [Example 26, N-[2-({7-[(2R)-1-hydroxypropan-2-yl]-7H-pyrrolo[2,3-d]pyrimidin-5-yl}carbonyl)pyridin-4-yl]-2-[3-(trifluoromethyl)-1H-pyrazol-1-yl]acetamide]
66.1	CC(C)(CO)n1cc(C(=O)c2cc(NC(=O)Cc3ccc(C#N)cc3)ccn2)c2cncnc21 [Example 57, 2-(4-cyanophenyl)-N-(2-{[7-(1-hydroxy-2-methylpropan-2-yl)-7H-pyrrolo[2,3-d]pyrimidin-5-yl]carbonyl}pyridin-4-yl)acetamide]
59.7	CC(C)n1cc(C(=O)c2ccnc(NC(=O)Cn3cc(C(F)(F)F)nn3)c2)c2cncnc21 [Example 116, N-(4-{[7-(propan-2-yl)-7H-pyrrolo[2,3-d]pyrimidin-5-yl]carbonyl}pyridin-2-yl)-2-[4-(trifluoromethyl)-1H-1,2,3-triazol-1-yl]acetamide]
29.5	O=C(Cc1ccc(C(F)(F)F)c(F)c1)Nc1cc(C(=O)c2cn(CCO)c3ncncc23)ccn1 [Example 142, 2-[3-fluoro-4-(trifluoromethyl)phenyl]-N-(4-{[7-(2-hydroxyethyl)-7H-pyrrolo[2,3-d]pyrimidin-5-yl]carbonyl}pyridin-2-yl)acetamide]
32	CC(C)(CO)n1cc(C(=O)c2ccc(C#N)c(NC(=O)Cc3ccc(Cl)cn3)c2)c2cnc(N)nc21 [Example 8, N-(5-{[2-amino-7-(1-hydroxy-2-methylpropan-2-yl)-7H-pyrrolo[2,3-d]pyrimidin-5-yl]carbonyl}-2-cyanophenyl)-2-(5-chloropyridin-2-yl)acetamide]
36.1	CC(C)n1cc(C(=O)c2ccnc(NC(=O)Cc3ccc(C#N)cc3)c2)c2cnc(N)nc21 [Example 45, N-(4-{[2-amino-7-(propan-2-yl)-7H-pyrrolo[2,3-d]pyrimidin-5-yl]carbonyl}pyridin-2-yl)-2-(4-cyanophenyl)acetamide]
15.7	CC(C)(C)n1cc(C(=O)c2cc(NC(=O)Cc3ccc(F)cc3)ccn2)c2cncnc21 [Example 43, N-{2-[(7-tert-butyl-7H-pyrrolo[2,3-d]pyrimidin-5-yl)carbonyl]pyridin-4-yl}-2-(4-fluorophenyl)acetamide]
48.2	Cc1cc(C(F)(F)F)nn1CC(=O)Nc1cc(C(=O)c2cn(CCO)c3ncncc23)ccn1 [Example 132, N-(4-{[7-(2-hydroxyethyl)-7H-pyrrolo[2,3-d]pyrimidin-5-yl]carbonyl}pyridin-2-yl)-2-[5-methyl-3-(trifluoromethyl)-1H-pyrazol-1-yl]acetamide]
5.27	CC(C)(C)n1cc(C(=O)c2cc(NC(=O)Cc3ccc(Cl)cn3)ccn2)c2cncnc21 [Example 39, N-{2-[(7-tert-butyl-7H-pyrrolo[2,3-d]pyrimidin-5-yl)carbonyl]pyridin-4-yl}-2-(5-chloropyridin-2-yl)acetamide]
11.5	CC(C)(CO)n1cc(C(=O)c2ccc(C#N)c(NC(=O)Cn3ccc(C(F)(F)F)n3)c2)c2cnc(N)nc21 [Example 11, N-(5-{[2-amino-7-(1-hydroxy-2-methylpropan-2-yl)-7H-pyrrolo[2,3-d]pyrimidin-5-yl]carbonyl}-2-cyanophenyl)-2-[3-(trifluoromethyl)-1H-pyrazol-1-yl]acetamide]
42.1	CC(C)n1cc(C(=O)c2ccnc(NC(=O)Cc3cccc(S(C)(=O)=O)c3)c2)c2cncnc21 [Example 123, 2-[3-(methylsulfonyl)phenyl]-N-(4-{[7-(propan-2-yl)-7H-pyrrolo[2,3-d]pyrimidin-5-yl]carbonyl}pyridin-2-yl)acetamide]
188	O=C(Cn1cc(C(F)(F)F)nn1)Nc1cc(C(=O)c2cn(CCO)c3ncncc23)ccn1 [Example 137, N-(4-{[7-(2-hydroxyethyl)-7H-pyrrolo[2,3-d]pyrimidin-5-yl]carbonyl}pyridin-2-yl)-2-[4-(trifluoromethyl)-1H-1,2,3-triazol-1-yl]acetamide]
268	CC(C)n1cc(C(=O)c2cc(NC(=O)Cc3cccc(S(C)(=O)=O)c3)ccn2)c2cncnc21 [Example 81, 2-[3-(methylsulfonyl)phenyl]-N-(2-{[7-(propan-2-yl)-7H-pyrrolo[2,3-d]pyrimidin-5-yl]carbonyl}pyridin-4-yl)acetamide]
459	CC1(n2cc(C(=O)c3cc(NC(=O)Cc4ccc(C#N)cc4)ccn3)c3cncnc32)COC1 [Example 169, 2-(4-cyanophenyl)-N-(2-{[7-(3-methyloxetan-3-yl)-7H-pyrrolo[2,3-d]pyrimidin-5-yl]carbonyl}pyridin-4-yl)acetamide]
6.56	CC(C)(CO)n1cc(C(=O)c2cc(NC(=O)Cc3cccc(C(F)(F)F)c3)ccn2)c2cncnc21 [Example 56, N-(2-{[7-(1-hydroxy-2-methylpropan-2-yl)-7H-pyrrolo[2,3-d]pyrimidin-5-yl]carbonyl}pyridin-4-yl)-2-[3-(trifluoromethyl)phenyl]acetamide]
10.2	CC(C)n1cc(C(=O)c2cc(NC(=O)Cn3ccc(C4CC4)n3)ccn2)c2cncnc21 [Example 83, 2-(3-cyclopropyl-1H-pyrazol-1-yl)-N-(2-{[7-(propan-2-yl)-7H-pyrrolo[2,3-d]pyrimidin-5-yl]carbonyl}pyridin-4-yl)acetamide]
185	CC(C)c1ccnn1CC(=O)Nc1cc(C(=O)c2cn(C(C)C)c3ncncc23)ccn1 [Example 148, 2-[5-(propan-2-yl)-1H-pyrazol-1-yl]-N-(4-{[7-(propan-2-yl)-7H-pyrrolo[2,3-d]pyrimidin-5-yl]carbonyl}pyridin-2-yl)acetamide]
6.43	CC(C)n1cc(C(=O)c2cc(NC(=O)Cc3ccc(Cl)cc3)ccn2)c2cnc(N)nc21 [Example 87, N-(2-{[2-amino-7-(propan-2-yl)-7H-pyrrolo[2,3-d]pyrimidin-5-yl]carbonyl}pyridin-4-yl)-2-(4-chlorophenyl)acetamide]
4.24	CC(C)n1cc(C(=O)c2ccnc(NC(=O)Cc3ccc(C(F)(F)F)cc3)c2)c2cncnc21 [Example 122, N-(4-{[7-(propan-2-yl)-7H-pyrrolo[2,3-d]pyrimidin-5-yl]carbonyl}pyridin-2-yl)-2-[4-(trifluoromethyl)phenyl]acetamide]
